Test results reported in patent US9707267B2, “Beta-turn peptidomimetic cyclic compounds for treating dry eye” (Mimetogen Pharmaceuticals, Inc., priority 2008, dated 2017).

What was measured:
[1] = test system: scopolamine induced dry eye model; test: Scopolamine induced dry eye model, corneal fluorescein staining (Example 3); type: in vivo, rat; details: single topical 5 μl of 1% (10 mg/mL) on day eight; read day fourteen; score 0 to 4
Procedure: Dry eye was induced using scopolamine (Sigma-Aldrich, St. Louis, Mo.), which was continuously and systemically delivered to the animals via an osmotic pump (2ML4 Alzet®; CedarLane, Burlington, Ontario) filled with scopolamine and implanted subcutaneously in the mid dorsal area between the scapulae. The wound was closed with 2-3 wound clips. After the surgery and again the next day, the animals were subcutaneously injected with Carprofen (0.5 mg/100 g) a non-steroidal anti-inflammatory drug and potent, long-acting analgesic in rodents. Animals were anaesthetized before the surgical pump implantation and before all clinical endpoint testing in an Isofluorane 99.9% USP (Abraxis Bioscience, Richmond Hill, Ontario) chamber. Scopolamine was delivered at 12.5 mg/day and, for technical reasons, the data was evaluated at day 14. […]
The clinical signs of corneal dryness were evaluated by fluorescein impregnation of the cornea. […] For each animal, the punctate fluorescent-positive area of the ocular surface was recorded in a blinded fashion. […]

naïve rats = test: Tear mucin production in naïve rats following topical instillation, ELLA (Example 4); type: in vivo, rat
Procedure: Dose-ranging studies were conducted on the topical instillations of compound D3 in stimulating mucin production in naïve rats. Thirty male sprague dawley rats were divided into five groups of six rats per group and were treated bilaterally once every hour for six consecutive hours with either saline, 0.4% of compound D3, 1.0% of compound D3, 2.5% of compound D3 and 0.00053% of NGF. Once anesthetized, each animal received a 5 μL topical instillation of test article into the lower conjunctival sac of both eyes using a calibrated micropipette.
Tear fluid washings from both eyes were pooled and were collected prior to treatment and following six hourly instillations of saline, compound D3 and NGF. All tear fluid washings were evaluated for mucin concentration by an enzyme-linked lectin assay (ELLA).
The mean and standard deviation (SD) were used to characterize the data. The differences in mucin concentration was calculated from treated minus baseline from groups of rats. Continuous mucin changes between two groups from baseline were evaluated using the paired t test. The mucin changes between more than two treatment groups were analyzed using an analysis of variance. The median mucin changes between treatment groups were compared against a theoretical median of zero using the […]. A two-sided test with P<0.05 was considered to be statistically significant. Statistical analysis were performed using GraphPad Prism 4.0C (GraphPad Software Inc., La Jolla, Calif.).

[2] = test system: Conjunctival goblet cells; test: Conjunctival goblet cell proliferation, WST-8 assay (Example 1); type: cell-based, rat; details: NGF 1 nM (FIG. 4), 24 hours
Procedure: Cells derived from the explants were grown in RPMI 1640 supplemented with 10% fetal bovine serum (FBS) and penicillin (100 U/mL)/streptomycin (100 μg/mL) at 37° C. in a humidified 5% CO2-atmosphere for seventy-two hours. Contaminating nongoblet cells were removed by scraping them from the plate. During this time, goblet cells migrated from the pieces and began to proliferate. After one week, the goblet cells were trypsinized and plated in twenty-four well culture plates with RPMI-1640 media supplemented with 10% FBS.
Conjunctival goblet cells were grown to subconfluence in 24-well culture plates and then serum deprived for twenty-four hours. […] CGC proliferation was determined with a colorimetric nonradioactive, WST-8 proliferation assay that measures the number of cells. This procedure employs the 2-(2-methoxy-4-nitrophenyl)-3-(4-nitrophenyl)-5-(2,4-disulfophenyl)-2H-tetrazolium, monosodium salt (WST-8), which is cleaved by viable, growing mitochondria to form a dark blue formazan product that is detected by a fluorescence ELISA reader (Bio-Tek, Winooski, Vt.) at 460 nm.
Data for CGC glycoconjugate secretion and proliferation were expressed as the increase (x-fold) above basal value, which was standardized to 1.0. For example, for the 0.3 μM (micromolar), 1 μM and 10 μM doses, the CGC glycoconjugate secretion and proliferation were expressed as test compound over untreated cells. […]

[3] = 2.5%, 5 μL bilaterally once every hour for six hours

Compound	corneal fluorescein staining, mean score [1] [score]	mean changes in mucin concentration (in words) (naïve rats; 0.4%, 1.0%, 2.5%, six hourly instillations)	tear mucin concentration at baseline (naïve rats; 2.5% group, prior to treatment) [ng/µL]	change in mucin concentration from baseline (naïve rats; [3]) [ng/µL]	tear mucin concentration after treatment (naïve rats; [3]) [ng/µL]	CGC proliferation [2] [fold above basal]
NCCCC[C@@H]1NC(=O)[C@H](CCC(=O)O)NC(=O)c2cc([N+](=O)[O-])ccc2OCCC(C(=O)NCC(=O)O)NC1=O (stereo partly drawn) [Compound D3]	1.1±0.1	dose-dependent	3.0 ± 1.9	4.0 ± 3.5	7.0 ± 4.5	
NGF: nerve growth factor (recombinant human), positive control						1.6±0.3
